Measurements published in the NIST ThermoML archive (doi:10.1016/j.jct.2013.10.034).

Assay: excess molar enthalpy (molar enthalpy of mixing); xn = mol fraction of the nth substance listed
Conditions: 298.15 K, 100 kPa, Liquid, Calvet calorimetry

CCCC[N+]1(C)CCCCC1.N#C[N-]C#N [1-butyl-1-methylpiperidinium dicyanamide] + O
Conditions | excess molar enthalpy [kcal/mol]
x1 = 0.0639 | -0.0355
x1 = 0.0706 | -0.0403
x1 = 0.0846 | -0.0509
x1 = 0.101 | -0.0634
x1 = 0.1186 | -0.0769
x1 = 0.1379 | -0.0917
x1 = 0.1607 | -0.109
x1 = 0.1873 | -0.127
x1 = 0.2173 | -0.145
x1 = 0.249 | -0.16
x1 = 0.2797 | -0.172
x1 = 0.3103 | -0.179
x1 = 0.3414 | -0.183
x1 = 0.371 | -0.185
x1 = 0.4062 | -0.184
x1 = 0.4376 | -0.181
x1 = 0.4741 | -0.176
x1 = 0.5173 | -0.167
x1 = 0.5418 | -0.162
x1 = 0.5687 | -0.155
x1 = 0.5984 | -0.146
x1 = 0.6314 | -0.136
x1 = 0.6683 | -0.124
x1 = 0.6951 | -0.115
x1 = 0.7241 | -0.105
x1 = 0.7557 | -0.0942
x1 = 0.7902 | -0.0816
x1 = 0.8081 | -0.0749
x1 = 0.8268 | -0.0677
x1 = 0.8465 | -0.0603
x1 = 0.8671 | -0.0529
x1 = 0.8887 | -0.0446
x1 = 0.9114 | -0.0354
x1 = 0.9354 | -0.0256
x1 = 0.9606 | -0.0152
x1 = 0.9872 | -0.00537

CCCC[N+]1(C)CCCC1.N#CN=C=[N-] [1-butyl-1-methylpyrrolidinium dicyanamide] + O
Conditions | excess molar enthalpy [kcal/mol]
x1 = 0.0674 | -0.0479
x1 = 0.0744 | -0.0542
x1 = 0.0892 | -0.0681
x1 = 0.1064 | -0.0843
x1 = 0.1248 | -0.102
x1 = 0.145 | -0.121
x1 = 0.1688 | -0.142
x1 = 0.1964 | -0.164
x1 = 0.2275 | -0.185
x1 = 0.2604 | -0.203
x1 = 0.2921 | -0.215
x1 = 0.3236 | -0.223
x1 = 0.3554 | -0.227
x1 = 0.3857 | -0.228
x1 = 0.4217 | -0.225
x1 = 0.4535 | -0.22
x1 = 0.4906 | -0.212
x1 = 0.5342 | -0.2
x1 = 0.5589 | -0.192
x1 = 0.5859 | -0.183
x1 = 0.6157 | -0.172
x1 = 0.6486 | -0.159
x1 = 0.6853 | -0.144
x1 = 0.7119 | -0.132
x1 = 0.7406 | -0.119
x1 = 0.7718 | -0.106
x1 = 0.8057 | -0.0907
x1 = 0.8233 | -0.0828
x1 = 0.8417 | -0.0752
x1 = 0.8609 | -0.0662
x1 = 0.881 | -0.0564
x1 = 0.9021 | -0.046
x1 = 0.9243 | -0.0352
x1 = 0.9475 | -0.0238
x1 = 0.9719 | -0.0113
x1 = 0.9976 | -0.000599
